# Experimental data reported in article PMC5361737, “Potent and Selective KDM5 Inhibitor Stops Cellular Demethylation of H3K4me3 at Transcription Start Sites and Proliferation of MM1S Myeloma Cells” (Cell Chemical Biology, 2017).
# Entries after “also recorded” stand apart in the source; their conditions may differ.
# Key:
# 5-HT5a (h) = 5-HT5a (h) (Homo sapiens, UniProt P47898); assay: Cerep Express Panel, agonist radioligand; format: binding; details: read-out: % Inhibition of reference (10 µM)
# Sequence of 5-HT5a (h) (P47898 whole entry): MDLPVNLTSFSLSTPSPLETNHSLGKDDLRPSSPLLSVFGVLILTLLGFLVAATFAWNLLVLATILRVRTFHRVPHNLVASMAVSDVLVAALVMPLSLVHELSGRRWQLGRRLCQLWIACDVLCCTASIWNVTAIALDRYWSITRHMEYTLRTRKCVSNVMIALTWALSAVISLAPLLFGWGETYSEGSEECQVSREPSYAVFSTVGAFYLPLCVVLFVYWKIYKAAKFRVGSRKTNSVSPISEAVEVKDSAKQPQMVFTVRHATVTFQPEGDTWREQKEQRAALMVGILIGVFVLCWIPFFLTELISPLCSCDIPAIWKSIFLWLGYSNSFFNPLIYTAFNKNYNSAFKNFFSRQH
# [1] = Liver microsomes stability; format: in vitro ADME; details: human liver microsomes
# sst (non-selective) = assay: Cerep Express Panel, agonist radioligand; format: binding; details: 10 µM
# 5-HT7 (h) = 5-HT7 (h) (Homo sapiens, UniProt P34969); assay: Cerep Express Panel, agonist radioligand; format: binding; details: read-out: % Inhibition of reference (10 µM)
# Sequence of 5-HT7 (h) (P34969 whole entry): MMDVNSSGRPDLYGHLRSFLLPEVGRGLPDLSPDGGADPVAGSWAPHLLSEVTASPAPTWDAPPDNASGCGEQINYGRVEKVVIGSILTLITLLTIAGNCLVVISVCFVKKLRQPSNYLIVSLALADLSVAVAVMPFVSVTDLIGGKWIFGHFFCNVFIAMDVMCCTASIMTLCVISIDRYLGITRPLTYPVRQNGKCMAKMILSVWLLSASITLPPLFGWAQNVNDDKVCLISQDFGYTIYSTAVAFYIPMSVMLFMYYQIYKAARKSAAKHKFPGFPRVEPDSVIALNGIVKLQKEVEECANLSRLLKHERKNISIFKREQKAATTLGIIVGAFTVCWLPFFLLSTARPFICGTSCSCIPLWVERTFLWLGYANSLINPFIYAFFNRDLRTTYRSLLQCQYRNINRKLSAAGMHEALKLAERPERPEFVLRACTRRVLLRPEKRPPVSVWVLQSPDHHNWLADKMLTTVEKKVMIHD
# kappa (KOP) = kappa (KOP) (Rattus norvegicus, UniProt P34975); assay: Cerep Express Panel, agonist radioligand; format: binding; details: read-out: % Inhibition of reference (10 µM)
# Sequence of kappa (KOP) (P34975 whole entry): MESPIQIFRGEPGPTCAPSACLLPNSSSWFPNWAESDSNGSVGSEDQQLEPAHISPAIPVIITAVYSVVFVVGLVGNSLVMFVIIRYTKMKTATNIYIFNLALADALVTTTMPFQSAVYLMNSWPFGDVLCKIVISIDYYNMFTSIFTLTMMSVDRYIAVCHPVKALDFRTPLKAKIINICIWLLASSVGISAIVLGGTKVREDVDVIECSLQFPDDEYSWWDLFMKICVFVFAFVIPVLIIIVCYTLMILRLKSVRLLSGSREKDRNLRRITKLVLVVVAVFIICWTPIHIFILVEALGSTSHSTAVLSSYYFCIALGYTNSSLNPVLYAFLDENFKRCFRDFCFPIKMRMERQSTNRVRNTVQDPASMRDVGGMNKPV
# D2S (h) = D2S (h) (Homo sapiens, UniProt P14416); assay: Cerep Express Panel, antagonist radioligand; format: binding; details: read-out: % Inhibition of reference (10 µM)
# Sequence of D2S (h) (P14416 1-414 isoform P14416-2): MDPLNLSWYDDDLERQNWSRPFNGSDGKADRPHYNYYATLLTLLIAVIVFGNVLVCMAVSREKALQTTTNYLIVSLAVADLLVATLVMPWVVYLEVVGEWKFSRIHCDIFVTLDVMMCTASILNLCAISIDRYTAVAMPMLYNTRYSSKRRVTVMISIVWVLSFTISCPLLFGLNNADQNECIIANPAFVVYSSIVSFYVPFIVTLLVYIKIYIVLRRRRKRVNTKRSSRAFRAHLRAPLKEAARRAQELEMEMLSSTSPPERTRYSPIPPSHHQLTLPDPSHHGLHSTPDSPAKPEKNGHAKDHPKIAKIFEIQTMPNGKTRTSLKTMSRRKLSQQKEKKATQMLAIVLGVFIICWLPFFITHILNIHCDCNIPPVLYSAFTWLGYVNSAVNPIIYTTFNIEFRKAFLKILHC
# NTS1 (NT1) (h) = NTS1 (NT1) (h) (Homo sapiens, UniProt P30989); assay: Cerep Express Panel, agonist radioligand; format: binding; details: read-out: % Inhibition of reference (10 µM)
# Sequence of NTS1 (NT1) (h) (P30989 whole entry): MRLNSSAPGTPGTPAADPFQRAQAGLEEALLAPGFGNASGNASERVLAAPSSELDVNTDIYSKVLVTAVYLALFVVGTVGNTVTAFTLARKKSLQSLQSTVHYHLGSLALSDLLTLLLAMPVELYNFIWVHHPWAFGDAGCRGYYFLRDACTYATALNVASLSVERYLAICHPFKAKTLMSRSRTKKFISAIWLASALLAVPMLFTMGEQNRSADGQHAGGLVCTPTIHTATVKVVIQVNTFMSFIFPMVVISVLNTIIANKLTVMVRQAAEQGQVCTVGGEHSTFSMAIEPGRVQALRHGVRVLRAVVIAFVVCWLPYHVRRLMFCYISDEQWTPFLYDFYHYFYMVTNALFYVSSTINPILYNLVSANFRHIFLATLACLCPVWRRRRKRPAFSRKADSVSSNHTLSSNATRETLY
# 5-HT6 (h) = 5-HT6 (h) (Homo sapiens, UniProt P50406); assay: Cerep Express Panel, agonist radioligand; format: binding; details: read-out: % Inhibition of reference (10 µM)
# Sequence of 5-HT6 (h) (P50406 whole entry): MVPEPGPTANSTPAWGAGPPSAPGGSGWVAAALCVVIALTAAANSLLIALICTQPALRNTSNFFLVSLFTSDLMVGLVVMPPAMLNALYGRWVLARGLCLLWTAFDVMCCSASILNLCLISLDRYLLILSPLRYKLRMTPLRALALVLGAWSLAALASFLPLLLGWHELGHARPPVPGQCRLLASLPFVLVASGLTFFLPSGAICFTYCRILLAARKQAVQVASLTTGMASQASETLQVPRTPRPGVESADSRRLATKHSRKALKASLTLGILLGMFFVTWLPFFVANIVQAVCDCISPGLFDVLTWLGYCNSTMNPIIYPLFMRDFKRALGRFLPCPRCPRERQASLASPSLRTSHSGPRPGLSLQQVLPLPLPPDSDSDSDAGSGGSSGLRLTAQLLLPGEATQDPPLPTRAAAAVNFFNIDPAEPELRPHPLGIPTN
# FIH = FIH (Homo sapiens, UniProt Q9NWT6); assay: 2-Oxoglutarate oxygenase assay panel, MALDI-TOF assay; format: biochemical
# CXCR2 (IL-8B) (h) = target: T1, CXCR2 (IL-8B) (h) (Homo sapiens, UniProt P25025); assay: Cerep Express Panel, agonist radioligand; format: binding; details: read-out: % Inhibition of reference (10 µM)
# T1 sequence (P25025 1-360): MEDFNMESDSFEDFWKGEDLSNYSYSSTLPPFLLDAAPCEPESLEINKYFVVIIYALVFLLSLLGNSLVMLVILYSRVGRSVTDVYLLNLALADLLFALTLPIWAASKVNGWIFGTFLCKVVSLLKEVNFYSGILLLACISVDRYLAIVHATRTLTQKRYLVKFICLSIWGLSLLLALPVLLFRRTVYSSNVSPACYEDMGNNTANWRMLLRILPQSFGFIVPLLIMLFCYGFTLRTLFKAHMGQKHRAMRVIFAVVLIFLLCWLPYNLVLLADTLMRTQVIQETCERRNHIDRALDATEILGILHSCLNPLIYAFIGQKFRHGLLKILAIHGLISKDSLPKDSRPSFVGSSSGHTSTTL
# [2] = tested on: Ca2+ channel (L, verapamil site) (phenylalkylamine); assay: Cerep Express Panel, antagonist radioligand; format: binding
# KV channel = assay: Cerep Express Panel, antagonist radioligand; format: binding
# 5-HT2B (h) = 5-HT2B (h) (Homo sapiens, UniProt P41595); assay: Cerep Express Panel, agonist radioligand; format: binding; details: read-out: % Inhibition of reference (10 µM)
# Sequence of 5-HT2B (h) (P41595 whole entry): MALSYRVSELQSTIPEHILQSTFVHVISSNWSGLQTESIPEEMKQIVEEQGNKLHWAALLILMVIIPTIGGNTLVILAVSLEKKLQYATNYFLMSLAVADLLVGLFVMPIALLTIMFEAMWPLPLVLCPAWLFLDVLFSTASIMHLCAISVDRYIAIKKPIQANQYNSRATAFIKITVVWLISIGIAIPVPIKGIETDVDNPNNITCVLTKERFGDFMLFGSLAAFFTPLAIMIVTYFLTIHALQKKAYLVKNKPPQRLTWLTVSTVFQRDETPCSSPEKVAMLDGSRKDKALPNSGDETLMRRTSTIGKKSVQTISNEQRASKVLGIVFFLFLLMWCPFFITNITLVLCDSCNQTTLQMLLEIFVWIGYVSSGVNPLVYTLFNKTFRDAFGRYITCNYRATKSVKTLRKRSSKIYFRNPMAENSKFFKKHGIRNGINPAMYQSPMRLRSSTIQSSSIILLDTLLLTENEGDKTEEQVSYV
# [3] = tested on: other tested JmjC family members; assay: IF assay, HeLa cells overexpressing other JmjC family members; format: cell-based, human; details: overexpression IF assay, 24 hr
# Text: The human cervical carcinoma cell line HeLa was obtained from the American Type Cultures Collection and maintained in Eagle's minimal essential media (Sigma-Aldrich) supplemented with 10% heat-inactivated fetal bovine serum (Life Technologies). Full-length cDNA for KDM5B (JARID1B, Q9UGL1, cDNA), KDM5C (JARID1C, P41229, IMAGE 5492114), KDM4B (JMJD2B, O94953, gift from ICR), KDM4C (JMJD2C, Q9H3R0, 8143862), KDM3A (JMJD1A, Q9Y4C1, 4823253), KDM2A (FBXL11, Q9Y2K7, 5534384), and KDM6B (JMJD3, O15054, cDNA) were amplified by PCR from either an MGC clone or a commercial cDNA source, or received as a gift from collaborators and cloned into pDONR-221 vector using Gateway BP reaction producing Gateway entry clones.
# […]. Mutations were introduced into full-length KDM Gateway entry clones using 15 cycles of the QuikChange II PCR protocol (Agilent Technologies). […]
# In brief, cells were transiently transfected with either the FLAG-tagged WT or mutant demethylase described above, using Lipofectamine 2000 (Life Technologies). […] After the DAPI-stained nuclei were automatically identified, a minimum threshold for anti-FLAG intensity was set so that only cells highly expressing the demethylase were analyzed. […]
# Y1 (h) = Y1 (h) (Homo sapiens, UniProt P25929); assay: Cerep Express Panel, agonist radioligand; format: binding; details: read-out: % Inhibition of reference (10 µM)
# Sequence of Y1 (h) (P25929 whole entry): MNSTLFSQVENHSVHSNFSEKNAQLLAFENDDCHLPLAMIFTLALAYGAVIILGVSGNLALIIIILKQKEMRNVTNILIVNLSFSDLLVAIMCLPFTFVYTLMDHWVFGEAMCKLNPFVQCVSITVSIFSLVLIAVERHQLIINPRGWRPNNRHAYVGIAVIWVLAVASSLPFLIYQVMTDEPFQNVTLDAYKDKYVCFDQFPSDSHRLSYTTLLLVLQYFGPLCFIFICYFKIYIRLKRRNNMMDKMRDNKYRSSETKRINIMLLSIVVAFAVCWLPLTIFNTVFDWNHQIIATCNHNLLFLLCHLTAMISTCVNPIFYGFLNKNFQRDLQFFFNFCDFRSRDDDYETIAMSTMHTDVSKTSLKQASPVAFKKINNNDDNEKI
# KDM5A-D = assay: Biochemical inhibition of the KDM5 sub-family in vitro
# MC4 (h) = MC4 (h) (Homo sapiens, UniProt P32245); assay: Cerep Express Panel, agonist radioligand; format: binding; details: read-out: % Inhibition of reference (10 µM)
# Sequence of MC4 (h) (P32245 whole entry): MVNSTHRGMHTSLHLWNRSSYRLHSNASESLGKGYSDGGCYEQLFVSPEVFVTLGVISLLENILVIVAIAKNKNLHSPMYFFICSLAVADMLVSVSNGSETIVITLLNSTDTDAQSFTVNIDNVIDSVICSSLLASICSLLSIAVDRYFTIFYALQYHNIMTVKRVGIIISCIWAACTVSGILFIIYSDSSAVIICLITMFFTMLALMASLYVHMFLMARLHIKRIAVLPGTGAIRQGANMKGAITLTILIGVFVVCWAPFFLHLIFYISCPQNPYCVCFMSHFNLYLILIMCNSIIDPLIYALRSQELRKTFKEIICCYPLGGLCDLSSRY
# [4] = tested on: cell line derived from human mesenchymal stem cells; assay: Cell viability, mesenchymal stem cells; format: cell-based; details: treated for 7 days
# Text: (§1) Figure S2 related to Figure 1 KDM5B Biochemical assay at different 2 -OG
# (§2) Stem Cells (B) treated for 7 days. Data plotted represents the mean and standard deviation of four independent
# (§3) 2OG Concentration IC50 (mM) Ki […]
# [5] = tested on: range of other multiple myeloma cell lines; assay: Cell viability, other multiple myeloma cell lines; format: cell-based; details: treated for 7 days
# Text: as §1, §2, §3
# GAL2 (h) = GAL2 (h) (Homo sapiens, UniProt O43603); assay: Cerep Express Panel, agonist radioligand; format: binding; details: read-out: % Inhibition of reference (10 µM)
# mu (MOP) (h) = mu (MOP) (h) (Homo sapiens, UniProt P35372); assay: Cerep Express Panel, agonist radioligand; format: binding; details: read-out: % Inhibition of reference (10 µM)
# CB1 (h) = CB1 (h) (Homo sapiens, UniProt P21554); assay: Cerep Express Panel, agonist radioligand; format: binding; details: read-out: % Inhibition of reference (10 µM)
# NO66 = NO66 (Homo sapiens, UniProt Q9H6W3); assay: 2-Oxoglutarate oxygenase assay panel, RapidFire MS assay; format: biochemical; details: read-out: pIC50 NO66 (converted)
# Sequence of NO66 (Q9H6W3 whole entry, species assumed): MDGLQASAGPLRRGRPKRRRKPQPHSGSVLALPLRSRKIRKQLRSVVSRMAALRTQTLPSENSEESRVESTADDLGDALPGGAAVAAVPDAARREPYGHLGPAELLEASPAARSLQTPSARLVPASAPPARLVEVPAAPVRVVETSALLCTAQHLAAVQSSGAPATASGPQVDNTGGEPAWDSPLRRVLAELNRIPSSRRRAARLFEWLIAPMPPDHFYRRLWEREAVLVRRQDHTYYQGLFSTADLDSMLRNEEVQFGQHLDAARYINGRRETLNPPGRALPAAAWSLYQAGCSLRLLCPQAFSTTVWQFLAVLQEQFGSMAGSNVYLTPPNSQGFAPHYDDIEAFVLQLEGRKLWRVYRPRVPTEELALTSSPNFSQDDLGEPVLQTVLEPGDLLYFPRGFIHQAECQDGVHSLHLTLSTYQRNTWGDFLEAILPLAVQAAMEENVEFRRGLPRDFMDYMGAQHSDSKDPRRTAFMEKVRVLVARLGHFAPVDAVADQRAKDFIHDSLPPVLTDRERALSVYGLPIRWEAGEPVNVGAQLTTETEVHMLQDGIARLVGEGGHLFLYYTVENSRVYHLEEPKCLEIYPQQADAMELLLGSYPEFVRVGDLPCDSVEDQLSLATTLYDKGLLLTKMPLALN
# B2 (h) = B2 (h) (Homo sapiens, UniProt P30411); assay: Cerep Express Panel, agonist radioligand; format: binding; details: read-out: % Inhibition of reference (10 µM)
# Sequence of B2 (h) (P30411 whole entry): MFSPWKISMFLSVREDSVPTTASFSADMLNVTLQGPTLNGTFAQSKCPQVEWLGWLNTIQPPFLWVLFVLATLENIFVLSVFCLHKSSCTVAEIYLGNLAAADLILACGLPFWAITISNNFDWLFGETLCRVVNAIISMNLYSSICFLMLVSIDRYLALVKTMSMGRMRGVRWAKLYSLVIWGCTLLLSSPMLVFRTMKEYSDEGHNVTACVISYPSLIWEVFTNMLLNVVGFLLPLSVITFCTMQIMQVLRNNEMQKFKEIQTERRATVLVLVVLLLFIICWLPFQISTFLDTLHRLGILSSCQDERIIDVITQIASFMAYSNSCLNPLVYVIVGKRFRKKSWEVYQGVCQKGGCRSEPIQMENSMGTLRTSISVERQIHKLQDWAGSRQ
compound,measurement,setting,value
CCN(CCN(C)C)C(=O)CNCc1cc(C(N)=O)ccn1 [KDOAM-25],inhibition at 10 µM,5-HT5a (h),-24%
same,"intrinsic clearance, in words",[1],low intrinsic clearance
same,microsomal CLint,[1]; read-out: HLM Clint,11.9 µL/min/mg
same,% Inhibition of reference (10 µM),sst (non-selective),0%
same,inhibition at 10 µM,5-HT7 (h),-10%
same,inhibition at 10 µM,kappa (KOP),-3%
same,inhibition at 10 µM,D2S (h),19%
same,inhibition at 10 µM,NTS1 (NT1) (h),-12%
same,inhibition at 10 µM,5-HT6 (h),-3%
same,IC50,FIH,> 100 µM
same,inhibition at 10 µM,CXCR2 (IL-8B) (h),5%
same,% Inhibition of reference (10 µM),[2],-1%
same,% Inhibition of reference (10 µM),KV channel,-4%
same,inhibition at 10 µM,5-HT2B (h),17%
same,cellular activity on other tested JmjC family members,[3],no cellular activity; also recorded: no effect
same,inhibition at 10 µM,Y1 (h),-7%
same,IC50,KDM5A-D,< 0.1 µM
same,inhibition at 10 µM,MC4 (h),5%
same,effect on viability of mesenchymal stem cells,[4],does not decrease cell viability; also recorded: did not show the same decrease in viability
same,effect on viability of other multiple myeloma cells,[5],does not decrease cell viability; also recorded: did not show the same decrease in viability
same,inhibition at 10 µM,GAL2 (h),-4%
same,inhibition at 10 µM,mu (MOP) (h),-2%
same,inhibition at 10 µM,CB1 (h),-1%
same,IC50,NO66,> 100 µM
same,inhibition at 10 µM,B2 (h),-10%
